# According to patent US6869929B2, “Use of transcription factors for treating inflammation and other diseases” (Beth Israel Deaconess Medical Center, priority 2000, dated 2005):
# B1: ESE-1 DN1: dominant negative ESE-1 protein lacking amino acids 26 through 192, expressed from pCI plasmid (SEQ ID NO: 39) (protein, listed as Homo sapiens)
# chain: MAATCEISNIFSNYFSAMYSSEDSTAGTGASRSSHSSDSGGSDVDLDPTDGKLFPSDGFRDCKKGDPKHGKRKRGRPRKLSKEYWDCLEGKKSKHAPRGTHLWEFIRDILIHPELNEGLMKWENRHEGVFKFLRSEAVAQLWGQKKKNSNMTYEKLSRAMRYYYKREILERVDGRRLVYKFGKNSSGWKEEEVLQSRN
# B2: GST-ESE-1 fusion protein, full length ESE-1 (other, UniProt P78545 1-371, looked up)
# chain: MAATCEISNIFSNYFSAMYSSEDSTLASVPPAATFGADDLVLTLSNPQMSLEGTEKASWLGEQPQFWSKTQVLDWISYQVEKNKYDASAIDFSRCDMDGATLCNCALEELRLVFGPLGDQLHAQLRDLTSSSSDELSWIIELLEKDGMAFQEALDPGPFDQGSPFAQELLDDGQQASPYHPGSCGAGAPSPGSSDVSTAGTGASRSSHSSDSGGSDVDLDPTDGKLFPSDGFRDCKKGDPKHGKRKRGRPRKLSKEYWDCLEGKKSKHAPRGTHLWEFIRDILIHPELNEGLMKWENRHEGVFKFLRSEAVAQLWGQKKKNSNMTYEKLSRAMRYYYKREILERVDGRRLVYKFGKNSSGWKEEEVLQSRN
# notes: mature; GST fusion on agarose beads in the pull-down; also called full length ESE-1 protein; not shown: glutathione S-transferase (GST) fusion partner
# What was measured:
# ESE-1 [1] = experiment: ESE-1 mRNA RT-PCR in RA synovial fibroblasts; assay type: cell-based, human; conditions: for ESE-1 mRNA expression, agent alone: 4th passage RA synovial fibroblasts
# Procedure: Tissues from patients with rheumatoid arthritis (RA) were obtained as discarded materials from total joint replacement surgery or synovectomy. RA synovial tissue samples were cultured for the generation of adherent synovial fibroblasts. Dispersed synovial tissues were prepared by a previously published method (Goldring, S. R., et al. 1983. The synovial-like membrane at the bone-cement interface in loose total hip replacements and its proposed role in bone lysis. J Bone Joint Surg 65:575-84). Cells were subjected to 2-4 passages and stimulated with IL-1β (R&D Systems) at 100 pg/ml or with TNF-α (R&D Systems) at 5 ng/ml.
# (§1) cDNAs were generated from 1 μg of total RNA using Ready-To-Go™ You-prime First-Strand Beads (Amersham Pharmacia Biotech Inc). RT-PCR amplifications of 0.1 μg cDNA were carried out using a MJResearch thermal cycler PTC-100 as follows: 5 min at 94° C., 20-37 cycles of 30 sec at 94° C., 30 sec at 56° C., and 30 sec at 72° C., followed by 5 min at 72° C. (Oettgen, P., et al. 2000, J Biol Chem 275:1216-25). The sequences of the human ESE-1 primers and the primers for human GAPDH were as described (Oettgen, P., et al. 1999, J Biol Chem 274:29439-52).
# The synovium in RA is comprised of heterogeneous cell populations including monocyte/macrophages, lymphocytes and synovial fibroblasts. To evaluate whether ESE-1 expression in synovial fibroblasts is regulated by proinflammatory cytokines, 4th passage synovial fibroblasts isolated from RA synovium were stimulated for different times with IL-1β in the absence or presence of indomethacin. […] They also indicate that cytokine-induced prostaglandins may modulate steady state ESE-1 mRNA levels. […] We, therefore, focused our attention in further studies on IL-1β.
# ESE-1 [2] = experiment: ESE-1 mRNA RT-PCR in immortalized chondrocytes T/C28a2, C28/I2, C20/A4; assay type: cell-based, human; conditions: T/C28a2, C28/I2 and C20/A4 chondrocytes; 24 hours
# Procedure: (§2) U-87 Mg and U-138 Mg (human glioma), THP-1 (human monocytic), RAW 264.7 (murine monocytic), LB-12 (human osteoblast-like large T antigen transformed bone marrow stromal cells), and human chondrocytes were grown and treated with cytokines as described (Apperley, J., et al. 1990. J Bone Mineral Res. 5:S93; Goldring, M. B., et al. 1994. J Clin Invest 94:2307-16; Goldring, S. R., et al. 1983. J Bone Joint Surg 65:575-84; Libermann, T. A., et al. 1987. Embo J. 6:1627-1632).
# as §1
# To test the hypothesis that ESE-1 is a mediator of cytokine responses in non-epithelial cell types, we analyzed ESE-1 expression in response to a variety of cytokines in several connective tissue cell types. Immortalized human chondrocytes, T/C28a2, C28/I2, and C20/A4 (Goldring, M. B., et al. 1994, J Clin Invest 94:2307-16), were stimulated with IL-1β, TNF-α and IFN-γ for 24 hours. […] The kinetics of ESE-1 induction was explored in a time course experiment with T/ C28a2 chondrocytes.
# COL2A1 promoter = COL2A1 promoter luciferase cotransfection in T/C-28a2 cells; assay type: cell-based, human; conditions: for inhibition of COL2A1/4.0 activity: T/C-28a2, pGL3 construct, highest concentrations tested
# Procedure: The COL2A1 sequence spanning −577 to +3428 bp (Goldring M B, et al, J Cell Biochem 1994;54:85-99, 39) was cloned into the pGL2-basic (pGL2B) luciferase reporter gene vector (Promega,) and named pGL2-COL2/4.0. Deletion constructs containing −577/+125 bp, −131/+125 bp, −87/+125 bp were prepared by enzyme digestion of pGL2-COL2/4.0 using PstI, ApaI, and PuuII, followed by ligation. For the deletion constructs −45/+125 bp, −83/+7 bp, and −45/+7 bp, PCR products were generated as described (Osaki et al.) and cloned into the pGL2-Basic luciferase vector. These reporter constructs were used as templates to generate point mutations or internal deletions by PCR mutagenesis employing the oligonucleotides listed in FIG. 16 and the QuikChange™ Site-Directed Mutagenesis Kit (Stratagene, La Jolla, Calif.). DNA fragments containing point mutations were then cloned into the pGL2B vector and confirmed by DNA sequencing using a G2 primer on pGL2 DNA. Deletions were also made in the −577/+127 bp COL2A1 promoter construct using the ExSite™ PCR-Based Site-Directed Mutagenesis Kit (Stratagene).
# Transient transfection experiments were carried out in C-28/I2 cells using LipofectAMINE PLUS™ Reagent (Life Technologies). Cells were seeded in 6-well tissue culture plates at 3.5×10^5 cells/well in DMEM/F12 containing 10% FCS 24 h prior to transfection. For each well, 1 μg of COL2A1-luciferase construct, 6 μl of PLUS reagent and 92 μl of serum-free DMEM/F12 were mixed and incubated for 15 min at room temperature. LipofectAMINE+ reagent (4 μl) in 100 μl of serum-free medium was then added to each reaction mixture and incubation was continued for an additional 30 min at room temperature. Finally, the transfection mixture was combined with 800 μl of serum-free medium and the lipid-nucleic acid complex was transferred to the washed cell monolayer in each well. After incubation for 4 h at 37° C., the transfection mix was diluted with an equal volume of DMEM/F12 containing 2% Nutridoma-SP, and incubation continued for 18 h in the absence or presence of IL-1β. For cotransfections, the cells were incubated for 24 h to permit expression of recombinant proteins prior to treatment with IL-1β for a further 18 h. Cell lysates were prepared by extraction with 200 μl of Reporter Lysis Buffer (Promega) and the protein content was determined using the Coomassie Plus Protein Assay Reagent (PIERCE). Luciferase activities were determined by chemiluminescence assay using the Autolumat LB953 luminometer (EG&G Berthold, Oak Ridge, Tenn.), normalized to the amount of protein. Each data point was calculated as the mean±standard deviation for three independently transfected cultures from one representative of at least three experiments. […]
# ESE-1 [3] = experiment: ESE-1 mRNA Northern blot in LB-12 osteoblasts; assay type: cell-based, human; conditions: LB-12 cells
# Procedure: as §2
# Total RNA was harvested using QIAshreder (Qiagen) and RNeasy® Mini Kit (Quiagen) or Trizol (Gibco BRL). Poly A^+ RNA was prepared with MicroPoly(A) Pure (Ambion). Northern blots (5 μg total RNA) were hybridized using a full length ESE-1 cDNA probe as described (Oettgen, P., et al. et al. 1997, Mol Cell Biol 17:4419-33.).
# Osteoblasts, the bone cells responsible for bone formation, represent another connective tissue cell target of inflammatory cytokines in joint disorders (Bogoch, E. R., and E. Moran. 1998, Can J Surg 41:264-71). […] LB-12 cells were incubated for different times in the absence or presence of IL-1β. […] Since the rapid, but transient induction of ESE-1 resembles that of immediate early genes, we tested the effect of the protein synthesis inhibitor cycloheximide which superinduces expression of certain genes due to mRNA stabilization. Cycloheximide alone had no effect, but superinduced IL-1β-mediated ESE-1 mRNA expression (FIG. 11d).
# NOS2 promoter [4] = experiment: LPS (endotoxin) induction of NOS2 promoter luciferase reporter in RAW cells; assay type: cell-based, murine
# Procedure: (§3) A 1516 and 265 bp fragment corresponding to nucleotides (−1485 to +31) and (−234 to +31) of the murine NOS2 gene promoter were subcloned into the PGL2 luciferase reporter(Promega).
# (§4) Co-transfections of 2×10^5 RAW cells or RASMCs were carried out with 0.6 μg reporter gene construct DNA and 0.6 μg expression vector DNA using 6 μl lipofectamine (Gibco-BRL) as described (Oettgen, P., et al. 1996. Characterization of NERF, a novel transcription factor related to the Ets factor ELF-1. Mol Cell Biol 16:5091-106). The cells were harvested 16 hours after transfection and assayed for luciferase activity. Transfections for every construct were performed independently in duplicates and repeated 3 times with two different plasmid preparations with similar results. Cotransfection of a second plasmid for determination of transfection efficiency was omitted because potential artifacts with this technique have been reported and because many commonly used viral promoters contain potential binding sites for ets factors (Farr, A., and A. Roman. 1992. A pitfall of using a second plasmid to determine transfection efficiency. Nucleic Acids Res 20:920).
# In the presence of LPS, the ESE-1 DN1 protein blocked induction of the NOS2 promoter by LPS by approximately 70-75%. (See FIG. 21C).
# NOS2 promoter [5] = experiment: ESE-1 transactivation of NOS2 promoter luciferase reporter, cotransfection in RAW cells; assay type: cell-based, murine; conditions: cotransfected with ESE-1
# Procedure: as §3, §4
# The ability of ESE-1 DN 1 to block transactivation of the NOS2 promoter was tested in RAW cells. Cotransfection of ESE-1 with the NOS2 promoter led to an approximate 12-fold increase in transactivation. […]
# [6] = molecular target: T1, p65 subunit of NF-kB, full-length, in vitro translated (UniProt Q04206 1-551, limits assumed, 35S-methionine labeled (pull-down assay)); experiment: GST pull-down, 35S-labeled in vitro translated p65
# T1 construct: mature; In the pull-down it was translated in rabbit reticulocyte lysate with 35S-methionine; in the cotransfections it was expressed from pCI; also called p65 Rel domain protein
# Procedure: A series of GST-ESE-1 fusion proteins were generated by PCR with specific primers to contain in frame restriction enzyme sites and sequenced to confirm that there were no mutations introduced by the PCR. GST-ESE-1 fusion proteins were prepared as previously described. 35S-methionine labeled in vitro translated full-length p50 and p65 were incubated with equal amounts of GST-ESE-1 fusion proteins or GST on agarose beads in 200 ul of NETN(0.5% Nonidet P-40, 1 mM EDTA, 20 mM Tris-HCl, pH 8.0, 100 mM NaCl) for 3 h at 4 degrees C. with gentle shaking. Bound p50 or p65 proteins were then eluted after three washings with NETN buffer and analyzed on a 12% SDS-polyacrylamide gel.
# T1 sequence (Q04206 whole entry, the tested form may be a part): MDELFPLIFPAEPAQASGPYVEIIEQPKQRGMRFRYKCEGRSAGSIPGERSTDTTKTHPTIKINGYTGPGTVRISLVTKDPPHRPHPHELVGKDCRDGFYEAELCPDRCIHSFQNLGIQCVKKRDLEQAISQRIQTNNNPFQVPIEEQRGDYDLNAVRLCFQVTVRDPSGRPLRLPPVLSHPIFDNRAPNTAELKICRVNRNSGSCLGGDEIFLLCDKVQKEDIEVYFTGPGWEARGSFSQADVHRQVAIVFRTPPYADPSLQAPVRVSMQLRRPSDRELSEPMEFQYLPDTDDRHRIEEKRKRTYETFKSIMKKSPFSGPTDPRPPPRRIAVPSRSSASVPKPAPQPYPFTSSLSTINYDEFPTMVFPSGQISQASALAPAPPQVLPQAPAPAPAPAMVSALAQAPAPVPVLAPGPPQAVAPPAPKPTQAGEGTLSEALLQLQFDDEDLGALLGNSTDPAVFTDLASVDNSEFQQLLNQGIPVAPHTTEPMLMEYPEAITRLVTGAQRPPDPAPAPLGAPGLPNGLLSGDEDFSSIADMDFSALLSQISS
molecule,measurement,setting,value
TNF-α,"ESE-1 mRNA expression, agent alone",ESE-1 [1],minimal ESE-1 induction
same,ESE-1 expression,ESE-1 [2],"stimulated ESE-1 expression in T/ C28a2 cells to similar levels as IL-1β, but only weakly in C28/I2 and C20/A4 cells"
COc1ccc2c(c1)c(CC(=O)O)c(C)n2C(=O)c1ccc(Cl)cc1 [indomethacin],"ESE-1 mRNA expression, agent alone",ESE-1 [1],did not express detectable ESE-1 mRNA
same,IL-1β-induced ESE-1 mRNA levels in presence of agent,"ESE-1 [1]; RA synovial fibroblasts, 6 hours, 24 hours, 5 days",stabilized and did not decline even after 5 days
IFN-γ: cytokine tested on chondrocytes,ESE-1 expression,ESE-1 [2],failed to induce ESE-1 expression
pCI-NERF2: expression vector for the ETS factor NERF-2,inhibition of COL2A1/4.0 activity,COL2A1 promoter,40%
C[C@]12CCC(=O)C=C1CC[C@@H]1[C@@H]2[C@@H](O)C[C@@]2(C)[C@H]1CC[C@]2(O)C(=O)CO [Hydrocortisone],IL-1β-mediated ESE-1 mRNA expression in presence of agent,ESE-1 [3],strongly enhanced
same,"ESE-1 mRNA expression, agent alone","ESE-1 [3]; 1, 2, 6, 24 hours",did not induce
ESE-3: ESE family Ets factor overexpressed by cotransfection,inhibition of pGL2-COL2/4.0,COL2A1 promoter; highest concentration tested,~60%
pCI-ELF1: expression vector for the ETS factor ELF-1,inhibition of COL2A1/4.0 activity,COL2A1 promoter,65%
B1,induction of the NOS2 promoter by LPS blocked by,NOS2 promoter [4]; in the presence of LPS,70-75%
same,basal NOS2 promoter activity,NOS2 promoter [4]; prior to LPS induction,slight reduction
same,ESE-1 transactivation of the NOS2 promoter blocked by,NOS2 promoter [5],60-70%
B2,binding result,[6],no binding
